In ChEMBL document CHEMBL5442219 one finds inhibition data, which are given here for 8 compounds.

What all share (settings): Compound concentration 10 µM
Experiment [1] has as its target Sigma non-opioid intracellular receptor 1 (Homo sapiens) (UniProt Q99720).
Description: PDSP Primary Binding target: SIGMAR1 - Compounds are tested at 10 uM concentration, plate are incubated at room temperature in the dark for 90 minutes. Reaction are stopped by vacuum filtration onto 0.3% polyethyleneimine soaked filter mats using Filtermate harvester. Scintilation cocktail is then melted onto microwave-dried filters on a hot plate and the radio activity is counted in Microbia counter.
Experiment [2] concerns the target D(1A) dopamine receptor (Homo sapiens) (UniProt P21728).
Description: PDSP Primary Binding target: DRD1 - Compounds are tested at 10 uM concentration, plate are incubated at room temperature in the dark for 90 minutes. Reaction are stopped by vacuum filtration onto 0.3% polyethyleneimine soaked filter mats using Filtermate harvester. Scintilation cocktail is then melted onto microwave-dried filters on a hot plate and the radio activity is counted in Microbia counter.
In experiment [3] the target is Histamine H3 receptor (Homo sapiens) (UniProt Q9Y5N1).
Description: PDSP Primary Binding target: HRH3 - Compounds are tested at 10 uM concentration, plate are incubated at room temperature in the dark for 90 minutes. Reaction are stopped by vacuum filtration onto 0.3% polyethyleneimine soaked filter mats using Filtermate harvester. Scintilation cocktail is then melted onto microwave-dried filters on a hot plate and the radio activity is counted in Microbia counter.
Experiment [4] addresses Translocator protein (Homo sapiens) (UniProt P30536).
Description: PDSP Primary Binding target: TSPO - Compounds are tested at 10 uM concentration, plate are incubated at room temperature in the dark for 90 minutes. Reaction are stopped by vacuum filtration onto 0.3% polyethyleneimine soaked filter mats using Filtermate harvester. Scintilation cocktail is then melted onto microwave-dried filters on a hot plate and the radio activity is counted in Microbia counter.
In experiment [5] the target is T1, Muscarinic acetylcholine receptor M2 (Homo sapiens) (UniProt P08172).
T1 sequence (whole entry): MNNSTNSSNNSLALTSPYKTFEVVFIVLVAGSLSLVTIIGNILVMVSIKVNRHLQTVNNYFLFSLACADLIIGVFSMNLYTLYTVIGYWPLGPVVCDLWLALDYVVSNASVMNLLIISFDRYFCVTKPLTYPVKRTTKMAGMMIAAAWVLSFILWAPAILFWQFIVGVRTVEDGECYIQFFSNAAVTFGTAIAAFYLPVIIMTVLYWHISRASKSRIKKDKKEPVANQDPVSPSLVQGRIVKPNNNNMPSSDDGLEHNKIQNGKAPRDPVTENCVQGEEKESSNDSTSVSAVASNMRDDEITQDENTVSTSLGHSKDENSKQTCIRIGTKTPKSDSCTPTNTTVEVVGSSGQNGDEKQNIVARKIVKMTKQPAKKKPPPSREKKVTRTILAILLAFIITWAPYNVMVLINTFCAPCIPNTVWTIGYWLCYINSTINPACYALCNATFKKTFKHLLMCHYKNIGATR
Description: PDSP Primary Binding target: CHRM2 - Compounds are tested at 10 uM concentration, plate are incubated at room temperature in the dark for 90 minutes. Reaction are stopped by vacuum filtration onto 0.3% polyethyleneimine soaked filter mats using Filtermate harvester. Scintilation cocktail is then melted onto microwave-dried filters on a hot plate and the radio activity is counted in Microbia counter.

For experiment [6], the target named is 5-hydroxytryptamine receptor 2A (Homo sapiens) (UniProt P28223).
Chain of 5-hydroxytryptamine receptor 2A (Homo sapiens) (P28223 whole entry): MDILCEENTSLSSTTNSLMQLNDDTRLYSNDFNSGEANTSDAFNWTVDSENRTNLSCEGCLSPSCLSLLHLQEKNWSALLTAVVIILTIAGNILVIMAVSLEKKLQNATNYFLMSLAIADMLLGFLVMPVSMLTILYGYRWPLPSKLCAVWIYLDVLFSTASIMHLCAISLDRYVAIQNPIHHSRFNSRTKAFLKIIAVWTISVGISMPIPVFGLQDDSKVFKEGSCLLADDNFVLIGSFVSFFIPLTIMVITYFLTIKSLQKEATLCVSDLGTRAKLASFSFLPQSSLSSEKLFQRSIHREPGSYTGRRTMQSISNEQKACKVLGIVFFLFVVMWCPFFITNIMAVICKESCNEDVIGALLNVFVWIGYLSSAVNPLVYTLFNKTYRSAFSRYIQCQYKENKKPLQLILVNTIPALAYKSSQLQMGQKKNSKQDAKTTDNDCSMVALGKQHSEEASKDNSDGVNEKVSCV
Description: PDSP Primary Binding target: HTR2A - Compounds are tested at 10 uM concentration, plate are incubated at room temperature in the dark for 90 minutes. Reaction are stopped by vacuum filtration onto 0.3% polyethyleneimine soaked filter mats using Filtermate harvester. Scintilation cocktail is then melted onto microwave-dried filters on a hot plate and the radio activity is counted in Microbia counter.
The target of experiment [7] is Kappa-type opioid receptor (Homo sapiens) (UniProt P41145).
Chain of Kappa-type opioid receptor (Homo sapiens) (P41145 whole entry): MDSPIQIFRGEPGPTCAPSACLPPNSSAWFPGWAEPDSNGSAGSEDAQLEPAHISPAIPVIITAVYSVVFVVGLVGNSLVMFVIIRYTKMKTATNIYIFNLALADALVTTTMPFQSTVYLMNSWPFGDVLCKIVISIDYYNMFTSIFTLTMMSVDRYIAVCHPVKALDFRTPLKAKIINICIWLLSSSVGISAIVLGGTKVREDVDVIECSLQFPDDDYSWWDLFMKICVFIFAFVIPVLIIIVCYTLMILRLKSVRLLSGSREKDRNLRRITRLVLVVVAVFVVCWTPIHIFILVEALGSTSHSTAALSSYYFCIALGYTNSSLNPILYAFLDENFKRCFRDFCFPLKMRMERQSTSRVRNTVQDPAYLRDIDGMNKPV
Description: PDSP Primary Binding target: OPRK1 - Compounds are tested at 10 uM concentration, plate are incubated at room temperature in the dark for 90 minutes. Reaction are stopped by vacuum filtration onto 0.3% polyethyleneimine soaked filter mats using Filtermate harvester. Scintilation cocktail is then melted onto microwave-dried filters on a hot plate and the radio activity is counted in Microbia counter.
For experiment [8], the target named is 5-hydroxytryptamine receptor 1E (Homo sapiens) (UniProt P28566).
Chain of 5-hydroxytryptamine receptor 1E (Homo sapiens) (P28566 whole entry): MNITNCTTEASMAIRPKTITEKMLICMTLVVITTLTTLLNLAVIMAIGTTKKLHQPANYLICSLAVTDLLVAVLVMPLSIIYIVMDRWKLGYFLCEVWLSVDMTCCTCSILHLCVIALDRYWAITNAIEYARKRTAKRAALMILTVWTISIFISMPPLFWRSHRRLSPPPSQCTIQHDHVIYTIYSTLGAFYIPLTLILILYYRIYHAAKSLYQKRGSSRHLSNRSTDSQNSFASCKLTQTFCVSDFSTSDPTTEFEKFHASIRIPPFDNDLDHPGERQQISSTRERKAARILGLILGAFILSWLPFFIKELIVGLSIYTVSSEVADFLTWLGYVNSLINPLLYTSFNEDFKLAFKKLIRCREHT
Description: PDSP Primary Binding target: HTR1E - Compounds are tested at 10 uM concentration, plate are incubated at room temperature in the dark for 90 minutes. Reaction are stopped by vacuum filtration onto 0.3% polyethyleneimine soaked filter mats using Filtermate harvester. Scintilation cocktail is then melted onto microwave-dried filters on a hot plate and the radio activity is counted in Microbia counter.
For experiment [9], the target named is D(2) dopamine receptor (Homo sapiens) (UniProt P14416).
Chain of D(2) dopamine receptor (Homo sapiens) (P14416 whole entry): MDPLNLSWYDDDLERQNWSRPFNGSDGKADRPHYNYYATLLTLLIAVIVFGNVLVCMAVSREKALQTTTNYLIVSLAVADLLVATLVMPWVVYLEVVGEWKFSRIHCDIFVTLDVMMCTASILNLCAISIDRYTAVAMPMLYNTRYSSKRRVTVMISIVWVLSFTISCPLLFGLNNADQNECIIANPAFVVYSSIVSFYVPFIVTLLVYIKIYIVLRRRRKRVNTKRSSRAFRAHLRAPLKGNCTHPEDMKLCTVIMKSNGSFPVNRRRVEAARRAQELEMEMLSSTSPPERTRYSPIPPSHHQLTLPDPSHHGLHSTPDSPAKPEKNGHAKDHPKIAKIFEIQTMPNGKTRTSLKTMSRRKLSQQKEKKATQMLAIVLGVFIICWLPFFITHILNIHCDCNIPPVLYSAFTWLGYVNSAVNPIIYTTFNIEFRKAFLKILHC
Description: PDSP Primary Binding target: DRD2 - Compounds are tested at 10 uM concentration, plate are incubated at room temperature in the dark for 90 minutes. Reaction are stopped by vacuum filtration onto 0.3% polyethyleneimine soaked filter mats using Filtermate harvester. Scintilation cocktail is then melted onto microwave-dried filters on a hot plate and the radio activity is counted in Microbia counter.
Experiment [10] addresses D(1B) dopamine receptor (Homo sapiens) (UniProt P21918).
Description: PDSP Primary Binding target: DRD5 - Compounds are tested at 10 uM concentration, plate are incubated at room temperature in the dark for 90 minutes. Reaction are stopped by vacuum filtration onto 0.3% polyethyleneimine soaked filter mats using Filtermate harvester. Scintilation cocktail is then melted onto microwave-dried filters on a hot plate and the radio activity is counted in Microbia counter.
In experiment [11] the target is Sigma intracellular receptor 2 (Homo sapiens) (UniProt Q5BJF2).
Chain of Sigma intracellular receptor 2 (Homo sapiens) (Q5BJF2 whole entry): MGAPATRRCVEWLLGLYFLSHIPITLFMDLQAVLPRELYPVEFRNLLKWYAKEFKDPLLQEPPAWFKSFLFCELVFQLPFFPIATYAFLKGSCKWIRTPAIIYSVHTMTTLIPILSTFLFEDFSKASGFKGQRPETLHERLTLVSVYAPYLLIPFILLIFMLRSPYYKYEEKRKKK
Description: PDSP Primary Binding target: TMEM97 - Compounds are tested at 10 uM concentration, plate are incubated at room temperature in the dark for 90 minutes. Reaction are stopped by vacuum filtration onto 0.3% polyethyleneimine soaked filter mats using Filtermate harvester. Scintilation cocktail is then melted onto microwave-dried filters on a hot plate and the radio activity is counted in Microbia counter.
Experiment [12] addresses Delta-type opioid receptor (Homo sapiens) (UniProt P41143).
Description: PDSP Primary Binding target: OPRD1 - Compounds are tested at 10 uM concentration, plate are incubated at room temperature in the dark for 90 minutes. Reaction are stopped by vacuum filtration onto 0.3% polyethyleneimine soaked filter mats using Filtermate harvester. Scintilation cocktail is then melted onto microwave-dried filters on a hot plate and the radio activity is counted in Microbia counter.
The target of experiment [13] is Beta-1 adrenergic receptor (Homo sapiens) (UniProt P08588).
Chain of Beta-1 adrenergic receptor (Homo sapiens) (P08588 whole entry, looked up): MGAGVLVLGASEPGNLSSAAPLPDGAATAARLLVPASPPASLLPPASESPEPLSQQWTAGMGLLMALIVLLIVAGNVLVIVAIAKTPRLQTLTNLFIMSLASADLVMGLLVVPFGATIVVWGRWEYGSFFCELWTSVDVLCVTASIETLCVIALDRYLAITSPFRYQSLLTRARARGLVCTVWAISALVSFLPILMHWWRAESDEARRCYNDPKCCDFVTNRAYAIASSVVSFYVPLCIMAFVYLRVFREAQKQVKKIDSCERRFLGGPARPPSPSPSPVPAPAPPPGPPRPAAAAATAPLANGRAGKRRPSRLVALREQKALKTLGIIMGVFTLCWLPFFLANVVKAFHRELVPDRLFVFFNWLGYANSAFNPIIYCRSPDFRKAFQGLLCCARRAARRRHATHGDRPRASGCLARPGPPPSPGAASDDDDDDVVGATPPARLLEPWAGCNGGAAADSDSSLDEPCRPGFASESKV
Description: PDSP Primary Binding target: ADRB1 - Compounds are tested at 10 uM concentration, plate are incubated at room temperature in the dark for 90 minutes. Reaction are stopped by vacuum filtration onto 0.3% polyethyleneimine soaked filter mats using Filtermate harvester. Scintilation cocktail is then melted onto microwave-dried filters on a hot plate and the radio activity is counted in Microbia counter.
Experiment [14] concerns the target T2, Alpha-1A adrenergic receptor (Homo sapiens) (UniProt P35348).
T2 sequence (whole entry): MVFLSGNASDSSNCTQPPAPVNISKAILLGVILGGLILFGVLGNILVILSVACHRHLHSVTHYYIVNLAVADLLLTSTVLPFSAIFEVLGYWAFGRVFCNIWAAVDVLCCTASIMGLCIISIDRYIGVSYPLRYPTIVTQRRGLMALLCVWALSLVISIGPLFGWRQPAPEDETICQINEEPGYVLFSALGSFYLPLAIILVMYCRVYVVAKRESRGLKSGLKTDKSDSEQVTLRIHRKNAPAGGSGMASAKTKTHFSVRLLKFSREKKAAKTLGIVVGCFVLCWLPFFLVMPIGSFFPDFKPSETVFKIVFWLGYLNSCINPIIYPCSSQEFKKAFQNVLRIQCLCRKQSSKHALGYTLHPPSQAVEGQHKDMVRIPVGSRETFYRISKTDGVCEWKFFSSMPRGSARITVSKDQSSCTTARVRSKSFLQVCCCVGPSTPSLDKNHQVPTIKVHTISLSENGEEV
Description: PDSP Primary Binding target: ADRA1A - Compounds are tested at 10 uM concentration, plate are incubated at room temperature in the dark for 90 minutes. Reaction are stopped by vacuum filtration onto 0.3% polyethyleneimine soaked filter mats using Filtermate harvester. Scintilation cocktail is then melted onto microwave-dried filters on a hot plate and the radio activity is counted in Microbia counter.

The target in experiment [15] is 5-hydroxytryptamine receptor 6 (Homo sapiens) (UniProt P50406).
Description: PDSP Primary Binding target: HTR6 - Compounds are tested at 10 uM concentration, plate are incubated at room temperature in the dark for 90 minutes. Reaction are stopped by vacuum filtration onto 0.3% polyethyleneimine soaked filter mats using Filtermate harvester. Scintilation cocktail is then melted onto microwave-dried filters on a hot plate and the radio activity is counted in Microbia counter.
Experiment [16] concerns the target 5-hydroxytryptamine receptor 7 (Homo sapiens) (UniProt P34969).
Description: PDSP Primary Binding target: HTR7 - Compounds are tested at 10 uM concentration, plate are incubated at room temperature in the dark for 90 minutes. Reaction are stopped by vacuum filtration onto 0.3% polyethyleneimine soaked filter mats using Filtermate harvester. Scintilation cocktail is then melted onto microwave-dried filters on a hot plate and the radio activity is counted in Microbia counter.
Experiment [17] deals with 5-hydroxytryptamine receptor 1B (Homo sapiens) (UniProt P28222).
Chain of 5-hydroxytryptamine receptor 1B (Homo sapiens) (P28222 whole entry): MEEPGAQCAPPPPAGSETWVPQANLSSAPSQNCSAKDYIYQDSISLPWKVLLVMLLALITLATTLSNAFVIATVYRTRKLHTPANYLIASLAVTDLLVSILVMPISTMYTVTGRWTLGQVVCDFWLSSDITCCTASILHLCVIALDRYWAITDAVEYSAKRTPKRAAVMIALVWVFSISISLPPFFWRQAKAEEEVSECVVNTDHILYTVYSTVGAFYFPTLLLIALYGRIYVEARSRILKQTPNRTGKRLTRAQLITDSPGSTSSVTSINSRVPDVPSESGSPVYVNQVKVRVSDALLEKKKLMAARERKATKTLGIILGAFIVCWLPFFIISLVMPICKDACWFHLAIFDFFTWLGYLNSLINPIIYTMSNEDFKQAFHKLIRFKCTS
Description: PDSP Primary Binding target: HTR1B - Compounds are tested at 10 uM concentration, plate are incubated at room temperature in the dark for 90 minutes. Reaction are stopped by vacuum filtration onto 0.3% polyethyleneimine soaked filter mats using Filtermate harvester. Scintilation cocktail is then melted onto microwave-dried filters on a hot plate and the radio activity is counted in Microbia counter.
The target of experiment [18] is T3, 5-hydroxytryptamine receptor 3A (Homo sapiens) (UniProt P46098).
T3 sequence (whole entry): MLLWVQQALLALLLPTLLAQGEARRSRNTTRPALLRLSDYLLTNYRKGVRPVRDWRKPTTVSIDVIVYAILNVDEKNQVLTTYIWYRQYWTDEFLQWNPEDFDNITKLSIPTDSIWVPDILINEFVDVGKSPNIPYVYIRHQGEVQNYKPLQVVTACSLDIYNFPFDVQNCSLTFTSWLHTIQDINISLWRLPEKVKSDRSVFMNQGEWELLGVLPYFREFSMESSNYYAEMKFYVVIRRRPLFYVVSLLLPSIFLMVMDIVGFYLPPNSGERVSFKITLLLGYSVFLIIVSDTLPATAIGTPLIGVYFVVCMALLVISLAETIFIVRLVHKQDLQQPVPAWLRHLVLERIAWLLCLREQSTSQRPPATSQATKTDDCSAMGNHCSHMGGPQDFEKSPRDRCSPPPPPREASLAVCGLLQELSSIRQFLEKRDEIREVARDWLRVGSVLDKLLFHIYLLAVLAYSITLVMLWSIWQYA
Description: PDSP Primary Binding target: HTR3A - Compounds are tested at 10 uM concentration, plate are incubated at room temperature in the dark for 90 minutes. Reaction are stopped by vacuum filtration onto 0.3% polyethyleneimine soaked filter mats using Filtermate harvester. Scintilation cocktail is then melted onto microwave-dried filters on a hot plate and the radio activity is counted in Microbia counter.

Experiment [19] deals with T4, Alpha-2C adrenergic receptor (Homo sapiens) (UniProt P18825).
T4 sequence (whole entry): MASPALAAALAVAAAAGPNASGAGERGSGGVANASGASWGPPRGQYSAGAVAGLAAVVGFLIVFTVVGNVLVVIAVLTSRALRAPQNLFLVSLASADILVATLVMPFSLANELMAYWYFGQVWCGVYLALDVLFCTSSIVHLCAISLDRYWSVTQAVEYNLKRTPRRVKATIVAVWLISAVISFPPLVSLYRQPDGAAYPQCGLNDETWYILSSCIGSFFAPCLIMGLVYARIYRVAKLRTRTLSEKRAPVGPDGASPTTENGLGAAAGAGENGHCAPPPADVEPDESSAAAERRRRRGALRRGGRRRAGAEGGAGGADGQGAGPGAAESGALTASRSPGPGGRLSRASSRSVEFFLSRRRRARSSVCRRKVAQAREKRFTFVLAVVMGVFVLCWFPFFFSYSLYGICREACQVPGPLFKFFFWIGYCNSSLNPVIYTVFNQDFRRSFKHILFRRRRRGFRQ
Description: PDSP Primary Binding target: ADRA2C - Compounds are tested at 10 uM concentration, plate are incubated at room temperature in the dark for 90 minutes. Reaction are stopped by vacuum filtration onto 0.3% polyethyleneimine soaked filter mats using Filtermate harvester. Scintilation cocktail is then melted onto microwave-dried filters on a hot plate and the radio activity is counted in Microbia counter.

Chain of Delta-type opioid receptor (Homo sapiens) (P41143 whole entry): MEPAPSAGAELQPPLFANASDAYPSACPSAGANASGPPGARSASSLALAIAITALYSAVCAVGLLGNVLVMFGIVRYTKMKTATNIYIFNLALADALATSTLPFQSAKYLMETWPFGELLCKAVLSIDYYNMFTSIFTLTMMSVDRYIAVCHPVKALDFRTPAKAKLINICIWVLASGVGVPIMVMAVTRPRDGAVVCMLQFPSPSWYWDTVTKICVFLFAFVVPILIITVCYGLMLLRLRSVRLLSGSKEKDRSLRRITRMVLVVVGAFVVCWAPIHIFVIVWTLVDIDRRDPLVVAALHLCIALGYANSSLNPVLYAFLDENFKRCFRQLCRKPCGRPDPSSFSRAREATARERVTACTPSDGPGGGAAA
Chain of D(1B) dopamine receptor (Homo sapiens) (P21918 whole entry): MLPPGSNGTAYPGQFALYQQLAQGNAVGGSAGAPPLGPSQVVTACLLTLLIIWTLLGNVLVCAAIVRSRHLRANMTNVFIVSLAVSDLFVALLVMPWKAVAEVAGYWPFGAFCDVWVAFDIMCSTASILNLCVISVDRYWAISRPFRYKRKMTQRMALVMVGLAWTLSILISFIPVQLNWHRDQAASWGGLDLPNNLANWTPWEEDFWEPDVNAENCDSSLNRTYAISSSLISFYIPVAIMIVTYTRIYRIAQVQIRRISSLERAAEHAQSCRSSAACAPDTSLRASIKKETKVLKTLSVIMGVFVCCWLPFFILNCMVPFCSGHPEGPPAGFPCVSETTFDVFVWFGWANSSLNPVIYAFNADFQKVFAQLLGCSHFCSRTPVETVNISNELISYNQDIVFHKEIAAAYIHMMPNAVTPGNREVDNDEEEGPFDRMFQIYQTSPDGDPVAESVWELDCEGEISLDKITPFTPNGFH
Chain of Histamine H3 receptor (Homo sapiens) (Q9Y5N1 whole entry): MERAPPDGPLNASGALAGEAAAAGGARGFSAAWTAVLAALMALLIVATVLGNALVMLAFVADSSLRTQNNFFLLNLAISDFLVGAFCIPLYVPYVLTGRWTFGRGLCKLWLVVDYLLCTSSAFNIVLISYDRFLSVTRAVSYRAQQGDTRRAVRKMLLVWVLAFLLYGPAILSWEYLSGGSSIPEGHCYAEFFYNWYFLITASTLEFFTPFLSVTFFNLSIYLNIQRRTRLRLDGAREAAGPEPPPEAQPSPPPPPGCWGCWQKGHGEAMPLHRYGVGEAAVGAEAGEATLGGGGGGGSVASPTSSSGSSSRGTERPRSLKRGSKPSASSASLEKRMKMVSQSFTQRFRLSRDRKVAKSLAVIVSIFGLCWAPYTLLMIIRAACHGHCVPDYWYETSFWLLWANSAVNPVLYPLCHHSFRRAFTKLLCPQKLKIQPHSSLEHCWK
Chain of 5-hydroxytryptamine receptor 7 (Homo sapiens) (P34969 whole entry): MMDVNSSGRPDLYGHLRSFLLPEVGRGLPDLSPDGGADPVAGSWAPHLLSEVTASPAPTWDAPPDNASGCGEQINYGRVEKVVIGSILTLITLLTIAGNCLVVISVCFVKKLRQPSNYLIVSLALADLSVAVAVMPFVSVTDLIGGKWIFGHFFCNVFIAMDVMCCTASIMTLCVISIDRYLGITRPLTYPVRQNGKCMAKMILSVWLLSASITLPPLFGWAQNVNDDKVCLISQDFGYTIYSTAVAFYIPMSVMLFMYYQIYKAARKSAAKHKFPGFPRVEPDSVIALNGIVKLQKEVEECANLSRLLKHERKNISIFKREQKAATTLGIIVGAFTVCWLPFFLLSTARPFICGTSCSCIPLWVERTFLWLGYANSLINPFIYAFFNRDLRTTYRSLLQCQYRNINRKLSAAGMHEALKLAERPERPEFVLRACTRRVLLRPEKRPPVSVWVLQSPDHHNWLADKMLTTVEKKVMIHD
Chain of Sigma non-opioid intracellular receptor 1 (Homo sapiens) (Q99720 whole entry): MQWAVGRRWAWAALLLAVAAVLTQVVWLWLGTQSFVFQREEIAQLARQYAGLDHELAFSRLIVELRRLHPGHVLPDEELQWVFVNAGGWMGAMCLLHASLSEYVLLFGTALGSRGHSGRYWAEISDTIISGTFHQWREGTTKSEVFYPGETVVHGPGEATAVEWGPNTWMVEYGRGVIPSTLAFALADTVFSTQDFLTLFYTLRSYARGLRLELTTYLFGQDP
Chain of Translocator protein (Homo sapiens) (P30536 whole entry): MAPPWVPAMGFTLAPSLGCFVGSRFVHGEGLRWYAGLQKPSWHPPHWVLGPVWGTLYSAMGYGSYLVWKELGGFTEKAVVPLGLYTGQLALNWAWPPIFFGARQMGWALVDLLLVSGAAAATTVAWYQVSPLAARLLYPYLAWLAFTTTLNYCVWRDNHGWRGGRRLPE

A word on the inhibition: it is the drop in the measured response relative to a control, in per cent. On to `CC1=C2C[C@H]3[C@@H](CC=C4C[C@@H](O)CC[C@@]43C)[C@@H]2CC[C@]12O[C@@H]1C[C@H](C)CN[C@H]1[C@H]2C`, for which the inhibition in [1] is 10.2%; in [2], -4.8%; in experiment [3] it was 32.2%; in experiment [4] it was 13.5%; in experiment [5] it was -1.88%; in experiment [6] it was 4.16%. The inhibition in experiment [7] is 1.76%; in experiment [8] it was 6.19%; in [9], 13.2%; in experiment [10], 1.59%; in experiment [11] it was 91.8%; in [12] it was -0.87%. Besides, the inhibition in experiment [13] was -3.27%.

For `CN1CCC(=C2c3ccccc3CC(=O)c3sccc32)CC1`, the inhibition in experiment [1] is -1.6%; in experiment [2], 82.8%; in [3], -7.74%; in [4], 6.55%; in [14] it was 9.71%; in [5], 75.2%. In addition, the inhibition is 78.4% in experiment [15]; 20.8% in experiment [7]; 27.9% in [8]; 100% in experiment [9]; 55.2% in experiment [10]; 91.3% in experiment [11]. For the same compound, the inhibition in experiment [16] was 90.4%; in [17], 63.1%; in experiment [18], 84.5%; in experiment [12], 14.2%; in [19], 42.7%.

Take `N#Cc1c(O)nc(SCc2cccc(F)c2F)nc1C1CC1`: the inhibition is 18.2% in experiment [1]; -8.29% in experiment [2]; 18.8% in experiment [3]; 40.4% in [4]; 28.1% in experiment [5]; 9.18% in experiment [15]. In addition, the inhibition in experiment [6] was -3.85%; in experiment [7] it was 3.53%; in experiment [8] it was -5.94%; in experiment [9], -6.52%; in experiment [10], 28.4%; in [11] it was 8.9%. In addition, the inhibition in [17] was -9.63%; in experiment [12] it was 7.91%; in experiment [19], 5.91%; in experiment [13], 28.6%.

With `COc1ccc2cc(S(=O)(=O)N[C@H](CC(=O)N[C@H](Cc3ccc(CN4[C@H](C)CCC[C@@H]4C)cc3)C(=O)N(C)C(C)C)c3ccc4c(c3)OCO4)ccc2c1`, the inhibition in experiment [1] was 102%; in experiment [2], 11.7%; in experiment [3], 62.1%; in experiment [4] it was 0.6%; in experiment [14], 3.26%; in [5], 69.6%. Besides, the inhibition in experiment [15] is 4.73%; in [6] it was 28.8%; in experiment [7] it was 96.7%; in experiment [9] it was 2.14%; in experiment [11], 97.7%; in [16] it was -0.02%. Besides, the inhibition in experiment [17] is 31.1%; in experiment [18] it was 12.8%; in experiment [12], 8.79%; in experiment [19], 71.8%; in experiment [13], -0.19%.

Take `O=C(O)Cn1c(C(=O)Nc2nc(-c3ccccc3Cl)cs2)cc2ccccc21`: the inhibition in experiment [1] was 9.14%; in [2], -2.06%; in experiment [3], -1.46%; in experiment [4] it was 20.4%; in [5], 0.82%; in [7] it was 2.51%. The inhibition was 3.11% in experiment [8]; 14.1% in [9]; -2.39% in [10]; 36.6% in experiment [11]; 11.2% in experiment [17]; 19% in experiment [12]. Further, the figures for the inhibition in [19] and in [13] were 0.91% and 30.9%, respectively.

In the case of `COc1cccc(-c2c(C)n(Cc3c(F)cccc3C(F)(F)F)c(=O)n(C[C@H](NCCCC(=O)O)c3ccccc3)c2=O)c1F`, the inhibition is 2.12% in experiment [1]; -9.59% in [2]; 15.8% in experiment [4]; 7.84% in experiment [14]; 3.22% in [5]; -1.04% in experiment [15]. The inhibition in experiment [6] is -2.02%; in experiment [7], 52.1%; in experiment [8], 11.7%; in experiment [9] it was 30.2%; in [10], 0.96%; in experiment [16], 34.2%. Moreover, the inhibition in experiment [17] is 15.5%; in experiment [12], 7.27%; in experiment [19], -3.99%.

As for `Cc1nc(C#Cc2ccnc(Cl)c2)c(C)n1-c1ccc(OC(F)(F)F)cc1`, the inhibition was 56.3% in experiment [1]; 0.66% in experiment [3]; 64.3% in experiment [4]; 14.3% in experiment [14]; -0.78% in experiment [5]; -0.41% in experiment [15]. Moreover, the inhibition in experiment [6] was 16.1%; in experiment [7], 5.17%; in experiment [8] it was 20.5%; in experiment [9] it was 28.3%; in experiment [10], 6%; in [11], 75.5%. Also, the inhibition is 7.42% in experiment [16]; 11.3% in [17]; -5.17% in experiment [18]; -5.91% in experiment [12]; -5.37% in experiment [19]; 29.4% in experiment [13].

For `FC(F)(F)c1cccc(-c2noc(-c3cc(-c4ccccc4)c(C(F)(F)F)s3)n2)c1`, the inhibition in experiment [1] is -0.34%; in experiment [4], 5.27%; in experiment [5] it was -7.48%; in [15], -0.25%; in experiment [6], -1.97%; in [7] it was 46.5%. For the same compound, the inhibition was 10.4% in experiment [8]; 24.7% in [9]; 7.06% in experiment [16]; 1.92% in experiment [17]; 0.39% in experiment [18]; -0.68% in [19]. Moreover, the inhibition in experiment [13] is -3.82%.
